Source: ChEMBL document CHEMBL5055685, “Discovery of the First Potent IDO1/IDO2 Dual Inhibitors: A Promising Strategy for Cancer Immunotherapy” (J Med Chem, 2021)
The source made the active and inactive calls.

What was measured:
[1] = molecular target: Myosin light chain kinase 2, skeletal/cardiac muscle (Homo sapiens) (UniProt Q9H1R3); assay: Inhibition of MLCK2 (unknown origin) at 1 uM
[2] = molecular target: Tyrosine-protein kinase CSK (Homo sapiens) (UniProt P41240); assay: Inhibition of CSK (unknown origin) at 1 uM
[3] = molecular target: Calcium/calmodulin-dependent protein kinase type II subunit delta (Homo sapiens) (UniProt Q13557); assay: Inhibition of CAMK2D (unknown origin) at 1 uM
[4] = molecular target: Fibroblast growth factor receptor 3 (Homo sapiens) (UniProt P22607); assay: Inhibition of FGFR3 (unknown origin) at 1 uM
[5] = Clearance in mouse liver microsomes; assay type: ADME, Microsome; settings: read-out: CLH
[6] = molecular target: Dual specificity testis-specific protein kinase 2 (Homo sapiens) (UniProt Q96S53); assay: Inhibition of TESK2 (unknown origin) at 1 uM
[7] = molecular target: CDK9/Cyclin K (Homo sapiens) (UniProt P50750+O75909); assay: Inhibition of CDK9/cyclin-K (unknown origin) at 1 uM; assay type: protein-complex assay
[8] = molecular target: Mitogen-activated protein kinase kinase kinase kinase 3 (Homo sapiens) (UniProt Q8IVH8); assay: Inhibition of GLK (unknown origin) at 1 uM
[9] = molecular target: T1, Indoleamine 2,3-dioxygenase 2 (Homo sapiens, UniProt Q6ZQW0); assay: Inhibition of IDO2 (unknown origin) assessed as reduction in kynurenine formation using L-tryptophan as substrate by methylene blue reagent based assay
T1 sequence (Q6ZQW0 whole entry): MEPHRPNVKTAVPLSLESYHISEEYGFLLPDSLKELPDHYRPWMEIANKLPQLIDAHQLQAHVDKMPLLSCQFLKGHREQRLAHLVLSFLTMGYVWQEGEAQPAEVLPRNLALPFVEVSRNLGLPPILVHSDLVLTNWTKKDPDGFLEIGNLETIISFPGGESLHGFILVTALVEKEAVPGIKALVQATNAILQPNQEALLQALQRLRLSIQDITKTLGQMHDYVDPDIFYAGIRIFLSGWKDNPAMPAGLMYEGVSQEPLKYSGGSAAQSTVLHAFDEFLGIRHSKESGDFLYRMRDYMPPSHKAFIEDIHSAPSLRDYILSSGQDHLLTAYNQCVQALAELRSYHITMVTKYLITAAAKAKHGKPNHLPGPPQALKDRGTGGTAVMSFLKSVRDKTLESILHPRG

[10] = molecular target: NT-3 growth factor receptor (Homo sapiens) (UniProt Q16288); assay: Inhibition of TRKC (unknown origin) at 1 uM
[11] = molecular target: Protein kinase C gamma type (Homo sapiens) (UniProt P05129); assay: Inhibition of PKCgamma (unknown origin)at 1 uM
HCT-116 [12] = assay: Antitumor immunity in BALB/c mouse xenografted with human HCT-116 cells assessed as increase in CD80 expression in CD11c+ cells by propidium iodide staining based flow cytometry analysis (reference value: 79.8 %); assay type: functional
[13] = molecular target: Mitogen-activated protein kinase kinase kinase 5 (Homo sapiens) (UniProt Q99683); assay: Inhibition of ASK1 (unknown origin) at 1 uM
[14] = molecular target: Calcium/calmodulin-dependent protein kinase type II subunit beta (Homo sapiens) (UniProt Q13554); assay: Inhibition of CAMK2B (unknown origin) at 1 uM
[15] = molecular target: Calcium/calmodulin-dependent protein kinase type 1 (Homo sapiens) (UniProt Q14012); assay: Inhibition of CAMK1A (unknown origin) at 1 uM
[16] = molecular target: Serine/threonine-protein kinase Nek1 (Homo sapiens) (UniProt Q96PY6); assay: Inhibition of NEK1 (unknown origin) at 1 uM
[17] = Protein binding in Sprague-Dawley rat plasma assessed as fraction unbound by equilibrium dialysis; assay type: ADME, cell-free
[18] = molecular target: Dual specificity tyrosine-phosphorylation-regulated kinase 1A (Homo sapiens) (UniProt Q13627); assay: Inhibition of DYRK1A (unknown origin) at 1 uM
[19] = molecular target: Casein kinase I isoform gamma-3 (Homo sapiens) (UniProt Q9Y6M4); assay: Inhibition of CK1gamma3 (unknown origin) at 1 uM
[20] = molecular target: Serine/threonine-protein kinase Nek9 (Homo sapiens) (UniProt Q8TD19); assay: Inhibition of NEK9 (unknown origin) at 1 uM
[21] = molecular target: Casein kinase I isoform epsilon (Homo sapiens) (UniProt P49674); assay: Inhibition of CK1E (unknown origin) at 1 uM
[22] = molecular target: Tyrosine-protein kinase receptor TYRO3 (Homo sapiens) (UniProt Q06418); assay: Inhibition of TYRO3 (unknown origin) at 1 uM
[23] = Apparent permeability across basolateral to apical side in human Caco-2 cells assessed as drug recovery; assay type: ADME, cell-based; settings: read-out: Drug recovery
[24] = molecular target: RAF proto-oncogene serine/threonine-protein kinase (Homo sapiens) (UniProt P04049); assay: Inhibition of RAF1 (unknown origin) at 1 uM
[25] = molecular target: Cyclin-dependent kinase 5/CDK5 activator 1 (Homo sapiens) (UniProt Q00535+Q15078); assay: Inhibition of CDK5/p35 (unknown origin) at 1 uM; assay type: protein-complex assay
[26] = molecular target: Serine/threonine-protein kinase A-Raf (Homo sapiens) (UniProt P10398); assay: Inhibition of ARAF (unknown origin) at 1 uM
[27] = molecular target: Serine/threonine-protein kinase 38 (Homo sapiens) (UniProt Q15208); assay: Inhibition of STK38 (unknown origin) at 1 uM
Mus musculus [28] = assay: Toxicity in BALB/c mouse implanted with mouse CT26 cells assessed as adverse effect at 50 mg/kg, ip bid for 28 days; assay type: organism-based; settings: in vivo, 672 h, time 28 day
[29] = molecular target: G protein-coupled receptor kinase 6 (Homo sapiens) (UniProt P43250); assay: Inhibition of GRK6 (unknown origin) at 1 uM
Mus musculus [30] = assay: In vivo inhibition of IDO2 in BALB/c mouse xenografted with human HCT-116 cells assessed as suppression of IDO2 mRNA expression in tumor by quantitative RT-PCR analysis; assay type: functional, organism-based
[31] = molecular target: Mitogen-activated protein kinase kinase kinase 6 (Homo sapiens) (UniProt O95382); assay: Inhibition of MEKK6 (unknown origin) at 1 uM
HCT-116 [32] = assay: Antitumor immunity in BALB/c mouse xenografted with human HCT-116 cells assessed as early Treg cells in spleen by propidium iodide staining based flow cytometry analysis (reference value: 9.33 %); assay type: functional
[33] = molecular target: Serine/threonine-protein kinase pim-1 (Homo sapiens) (UniProt P11309); assay: Inhibition of PIM1 (unknown origin) at 1 uM
[34] = molecular target: Ephrin type-A receptor 1 (Homo sapiens) (UniProt P21709); assay: Inhibition of EPHA1 (unknown origin) at 1 uM
[35] = molecular target: Dual specificity mitogen-activated protein kinase kinase 3 (Homo sapiens) (UniProt P46734); assay: Inhibition of MEK3 (unknown origin) at 1 uM
[36] = molecular target: Mitogen-activated protein kinase 3 (Homo sapiens) (UniProt P27361); assay: Inhibition of ERK1 (unknown origin) at 1 uM
[37] = molecular target: Fibroblast growth factor receptor 2 (Homo sapiens) (UniProt P21802); assay: Inhibition of FGFR2 (unknown origin) at 1 uM
Chain of Fibroblast growth factor receptor 2 (Homo sapiens) (P21802 22-821 limits assumed): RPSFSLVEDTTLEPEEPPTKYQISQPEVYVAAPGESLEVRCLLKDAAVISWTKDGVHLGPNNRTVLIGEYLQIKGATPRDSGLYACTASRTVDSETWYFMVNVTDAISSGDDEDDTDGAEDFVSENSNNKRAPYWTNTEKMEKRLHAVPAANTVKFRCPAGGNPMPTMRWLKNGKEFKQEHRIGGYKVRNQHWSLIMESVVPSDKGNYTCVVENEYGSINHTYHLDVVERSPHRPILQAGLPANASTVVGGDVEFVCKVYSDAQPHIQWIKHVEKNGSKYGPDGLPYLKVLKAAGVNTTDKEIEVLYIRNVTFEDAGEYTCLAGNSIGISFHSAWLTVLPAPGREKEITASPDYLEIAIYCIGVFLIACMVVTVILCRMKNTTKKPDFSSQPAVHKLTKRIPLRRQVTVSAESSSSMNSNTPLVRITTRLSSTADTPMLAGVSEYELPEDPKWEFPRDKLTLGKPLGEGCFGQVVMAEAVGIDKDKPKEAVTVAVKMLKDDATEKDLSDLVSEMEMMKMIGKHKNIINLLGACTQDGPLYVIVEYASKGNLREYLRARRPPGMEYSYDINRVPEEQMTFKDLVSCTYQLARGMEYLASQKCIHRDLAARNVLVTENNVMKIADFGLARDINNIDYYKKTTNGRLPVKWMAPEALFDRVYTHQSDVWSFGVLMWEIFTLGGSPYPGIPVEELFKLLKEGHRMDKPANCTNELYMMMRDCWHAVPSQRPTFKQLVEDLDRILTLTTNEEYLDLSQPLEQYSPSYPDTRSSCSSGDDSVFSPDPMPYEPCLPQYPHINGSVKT

Chain of Serine/threonine-protein kinase pim-1 (Homo sapiens) (P11309 whole entry, looked up): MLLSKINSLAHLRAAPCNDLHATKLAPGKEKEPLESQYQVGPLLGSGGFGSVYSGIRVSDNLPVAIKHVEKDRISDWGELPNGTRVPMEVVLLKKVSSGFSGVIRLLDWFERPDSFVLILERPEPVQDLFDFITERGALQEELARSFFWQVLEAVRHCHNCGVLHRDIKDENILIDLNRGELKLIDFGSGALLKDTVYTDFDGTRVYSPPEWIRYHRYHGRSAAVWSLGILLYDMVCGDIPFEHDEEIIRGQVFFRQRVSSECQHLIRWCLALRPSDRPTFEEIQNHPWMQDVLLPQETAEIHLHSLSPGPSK
Chain of Myosin light chain kinase 2, skeletal/cardiac muscle (Homo sapiens) (Q9H1R3 whole entry): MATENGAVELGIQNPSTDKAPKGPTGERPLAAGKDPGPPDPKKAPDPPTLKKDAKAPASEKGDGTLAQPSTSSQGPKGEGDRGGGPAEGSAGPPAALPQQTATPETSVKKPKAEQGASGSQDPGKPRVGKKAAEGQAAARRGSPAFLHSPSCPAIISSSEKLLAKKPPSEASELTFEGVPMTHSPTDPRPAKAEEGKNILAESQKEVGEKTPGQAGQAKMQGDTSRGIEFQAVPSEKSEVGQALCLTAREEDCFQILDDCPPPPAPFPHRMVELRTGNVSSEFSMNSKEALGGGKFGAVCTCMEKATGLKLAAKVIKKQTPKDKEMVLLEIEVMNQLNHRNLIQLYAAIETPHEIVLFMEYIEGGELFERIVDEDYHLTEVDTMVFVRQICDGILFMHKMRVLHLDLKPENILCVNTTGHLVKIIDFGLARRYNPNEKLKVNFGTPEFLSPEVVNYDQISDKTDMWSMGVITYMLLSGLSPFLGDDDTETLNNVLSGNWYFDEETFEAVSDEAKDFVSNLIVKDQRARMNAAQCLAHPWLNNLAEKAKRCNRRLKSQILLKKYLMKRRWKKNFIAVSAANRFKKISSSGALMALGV
Chain of Tyrosine-protein kinase CSK (Homo sapiens) (P41240 2-450 limits assumed): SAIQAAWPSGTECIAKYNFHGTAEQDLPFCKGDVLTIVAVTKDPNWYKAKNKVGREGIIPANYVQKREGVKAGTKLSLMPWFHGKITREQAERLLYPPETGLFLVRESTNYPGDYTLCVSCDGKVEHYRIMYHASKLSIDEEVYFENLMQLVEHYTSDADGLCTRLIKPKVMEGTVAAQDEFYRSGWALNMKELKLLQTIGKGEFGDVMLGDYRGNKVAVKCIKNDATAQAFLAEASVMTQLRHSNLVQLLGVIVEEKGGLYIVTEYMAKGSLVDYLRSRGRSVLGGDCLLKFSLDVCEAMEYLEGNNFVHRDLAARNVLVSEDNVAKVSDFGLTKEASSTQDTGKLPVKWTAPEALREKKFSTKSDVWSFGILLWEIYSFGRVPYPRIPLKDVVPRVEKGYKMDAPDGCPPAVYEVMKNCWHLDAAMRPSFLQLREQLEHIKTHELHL
Chain of Dual specificity mitogen-activated protein kinase kinase 3 (Homo sapiens) (P46734 whole entry): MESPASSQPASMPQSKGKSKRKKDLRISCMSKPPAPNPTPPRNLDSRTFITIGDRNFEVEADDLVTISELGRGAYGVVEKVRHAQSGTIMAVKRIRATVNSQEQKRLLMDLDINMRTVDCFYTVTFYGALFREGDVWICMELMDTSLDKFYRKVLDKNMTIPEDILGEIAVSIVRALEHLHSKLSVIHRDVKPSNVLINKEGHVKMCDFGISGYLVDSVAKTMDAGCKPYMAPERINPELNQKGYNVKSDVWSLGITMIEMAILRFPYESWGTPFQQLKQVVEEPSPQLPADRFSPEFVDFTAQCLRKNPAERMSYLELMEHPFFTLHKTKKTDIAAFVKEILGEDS
Chain of G protein-coupled receptor kinase 6 (Homo sapiens) (P43250 whole entry, looked up): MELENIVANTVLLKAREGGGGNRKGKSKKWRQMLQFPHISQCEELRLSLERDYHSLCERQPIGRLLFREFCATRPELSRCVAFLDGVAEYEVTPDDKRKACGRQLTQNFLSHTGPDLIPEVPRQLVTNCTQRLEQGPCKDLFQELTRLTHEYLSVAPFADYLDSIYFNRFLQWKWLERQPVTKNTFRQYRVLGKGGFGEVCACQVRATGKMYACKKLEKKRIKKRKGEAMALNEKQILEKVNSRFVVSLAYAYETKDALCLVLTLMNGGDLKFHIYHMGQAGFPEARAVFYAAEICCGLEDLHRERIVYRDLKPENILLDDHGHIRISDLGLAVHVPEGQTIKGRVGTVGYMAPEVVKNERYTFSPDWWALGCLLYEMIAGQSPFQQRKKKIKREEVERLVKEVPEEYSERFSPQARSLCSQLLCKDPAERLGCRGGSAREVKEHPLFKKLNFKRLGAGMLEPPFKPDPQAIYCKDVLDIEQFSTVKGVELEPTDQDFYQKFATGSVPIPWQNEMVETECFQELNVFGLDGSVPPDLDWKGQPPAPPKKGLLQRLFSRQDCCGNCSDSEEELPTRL
Chain of Mitogen-activated protein kinase 3 (Homo sapiens) (P27361 whole entry): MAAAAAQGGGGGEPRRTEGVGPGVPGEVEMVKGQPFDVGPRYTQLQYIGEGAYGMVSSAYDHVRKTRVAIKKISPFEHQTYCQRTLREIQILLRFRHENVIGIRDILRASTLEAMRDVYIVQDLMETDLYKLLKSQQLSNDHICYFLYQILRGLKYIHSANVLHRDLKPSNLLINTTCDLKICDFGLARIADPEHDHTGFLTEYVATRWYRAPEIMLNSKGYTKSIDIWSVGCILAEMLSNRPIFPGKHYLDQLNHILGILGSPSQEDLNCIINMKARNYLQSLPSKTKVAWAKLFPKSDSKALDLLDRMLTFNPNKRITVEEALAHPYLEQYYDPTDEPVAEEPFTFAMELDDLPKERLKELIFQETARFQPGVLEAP
Chain of Casein kinase I isoform epsilon (Homo sapiens) (P49674 whole entry, looked up, canonical isoform): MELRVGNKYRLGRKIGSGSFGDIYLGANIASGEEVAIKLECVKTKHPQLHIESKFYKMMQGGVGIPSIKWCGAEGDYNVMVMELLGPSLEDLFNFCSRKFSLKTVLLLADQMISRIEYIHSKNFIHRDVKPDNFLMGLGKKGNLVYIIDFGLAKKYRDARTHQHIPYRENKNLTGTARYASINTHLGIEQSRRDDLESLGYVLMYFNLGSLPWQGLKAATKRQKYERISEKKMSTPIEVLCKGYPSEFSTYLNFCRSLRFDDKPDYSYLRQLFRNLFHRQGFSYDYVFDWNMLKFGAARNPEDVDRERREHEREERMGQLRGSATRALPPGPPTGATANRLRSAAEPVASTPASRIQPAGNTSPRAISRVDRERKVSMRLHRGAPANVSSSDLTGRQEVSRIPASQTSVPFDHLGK
Chain of Calcium/calmodulin-dependent protein kinase type 1 (Homo sapiens) (Q14012 whole entry, looked up): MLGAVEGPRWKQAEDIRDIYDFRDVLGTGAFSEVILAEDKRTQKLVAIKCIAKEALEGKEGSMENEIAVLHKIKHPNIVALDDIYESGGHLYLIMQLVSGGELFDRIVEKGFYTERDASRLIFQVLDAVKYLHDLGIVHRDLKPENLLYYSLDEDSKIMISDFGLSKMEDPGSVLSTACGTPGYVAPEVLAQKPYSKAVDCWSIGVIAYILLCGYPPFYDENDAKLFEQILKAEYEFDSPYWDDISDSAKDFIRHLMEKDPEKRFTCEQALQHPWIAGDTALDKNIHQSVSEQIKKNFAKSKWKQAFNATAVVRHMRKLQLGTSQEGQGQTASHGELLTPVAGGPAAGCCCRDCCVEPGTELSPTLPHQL

OCCOCc1cn(CCNc2nonc2/C(=N/O)Nc2ccc(F)c(Br)c2)nn1
112%: recovery [23]
75.8%: Activity (HCT-116 [12])
inactive: inhibition [1] | inhibition [2] | inhibition [3] | inhibition [4] | inhibition [6] | inhibition [7] | inhibition [8] | inhibition [10] | inhibition [11] | inhibition [13] | inhibition [14] | inhibition [15] | inhibition [16] | inhibition [18] | inhibition [19] | inhibition [20] | inhibition [21] | inhibition [22] | inhibition [24] | inhibition [25] | inhibition [26] | inhibition [27] | inhibition [29] | inhibition [31] | inhibition [33] | inhibition [34] | inhibition [35] | inhibition [36] | inhibition [37]
144 nM: IC50 [9]
active: inhibition (Mus musculus [30])
32.2 µL/min/mg: microsomal CLint [5]
0.0672: fraction unbound [17]
Non-Toxic: Activity (Mus musculus [28])
4.54%: Activity (HCT-116 [32])
